From patent US20160278376A1 (priority 2013, published 2016)
Values after ≈ are worked out from the molar mass of the structure shown. Like-named read-outs stand apart in the source and are kept apart here.

Key:
[1] = test system: L. crescens strain BT-1 (Lcr); assay type: cell-based, Liberibacter crescens; conditions: 5 days
Swingle rootstocks = test: Phytotoxicity of soil drench on citrus; assay type: in vivo
From the text: (§1) To further test the phytoxicity of cinnamaldehyde or carvacrol in 70% ethanol, and 70% ethanol alone on citrus plants, we applied 1% and 10% cinnamaldehyde or carvacrol (each dissolved in 70% ethanol) on Swingle rootstocks (˜6 inches to 1 foot tall) by adding sufficient liquid to soil of potted citrus to the point of run-off of the drench. We also applied 70% ethanol as control in these two methods.

[2] = test system: E. coli Stratagene strain “Solopack”; test: Paper disc inhibition assay on E. coli lawn; assay type: cell-based; conditions: 20 μl drops without dilution (100% strength) on 6 mm discs; 24 hrs
From the text: FIG. 1. Effect of Carvacrol, Cinnamaldehyde and Geraniol against E. coli cells. Twenty microliter drops of three chemicals (at 100% strength) were placed on paper assay discs on top of E. coli lawn. Control disc included a solution of 70% ethanol without any added essential oil. Dotted line circles indicate zone of inhibition. Photo taken at 24 hrs after plating.
The essential oils cinnamadehyde (Aldrich, W228605; ≧98% purity), carvacrol (Aldrich, W224502; ≧98% purity) and geraniol (Aldrich, 163333; 98% purity) were purchased Sigma-Aldrich (St. Louis, Mo.). A single colony of E. coli Stratagene strain “Solopack” was inoculated in 5 ml of Luria Broth (LB) liquid medium with shaking at 37° C. overnight. Two hundred μl of the E. coli overnight cultures were placed on an LB agar plate, and spread evenly with glass beads. The bacterial culture was allowed to absorb into the LB medium. Within 30 min after absorption, 20 μl drops of the three essential oils (cinnamaldehyde, carvacrol or geraniol) were separately placed without dilution on 6 mm discs (Whatman, Cat No. 2017-006; GE healthcare Life Science) and the treated disks were placed on top of the plates with E. coli. The plates were then incubated for 24 hrs. Photos were taken at 24 hrs after plating (see FIG. 1). Experiments were repeated, with the same results.

[3] = test system: Swingle rootstocks and sweet orange; test: Phytotoxicity of foliar spray / leaf painting on citrus; assay type: in vivo
From the text: as §1, with “To” for “To further”, “1% (w/v)” for “1%”, “10% (w/v)” for “10%”, “spraying” for “adding sufficient liquid to soil of potted citrus”, “spray and also sweet orange (˜3 foot tall) by painting one or both sides of a portion of the leaf surface.” for “drench.”

Las [4] = assay type: in vivo; conditions: 1% (w/v) in 70% ethanol, foliar spray to run off; 1-2 weeks later, remained positive for at least several months; positive = Ct ≤ 35
Lcr = test: microbe, parasite or virus in culture; assay type: cell-based; conditions: Liberibacter crescens, read-out: Minimum Inhibitory Concentration (MIC)
[5] = test system: Hamlin sweet orange trees grafted onto Swingle rootstock; conditions: in vivo
Las [6] = assay type: in vivo
Las [7] = assay type: in vivo; conditions: 1.5% (w/v) in 100% DMSO
[8] = 20 μl at 2 mg/ml in 70% ethanol on 6 mm discs
[9] = 1% in 70% ethanol (carvacrol: 8 mg/ml (1%), observable by 60 hrs), potted Swingle rootstocks
[10] = 1% (w/v) in 70% ethanol, sprayed to run-off on Swingle rootstocks, painted on sweet orange leaves, carvacrol effect observable by 24 hours
[11] = 10% w/v in 70% ethanol, chlorosis and leaf curling, but not defoliation

Cc1ccc(C(C)C)cc1O [carvacrol, reference compound]
inhibition of the growth of Lcr (zone of inhibition) [1, 8]: slight inhibition
phytotoxicity to citrus, soil drench (Swingle rootstocks; [9]): highly phytotoxic
inhibition of the growth of E. coli (zone of inhibition) [2]: more inhibitory than cinnamaldehyde
phytotoxicity to citrus, foliar application [3, 10]: highly phytotoxic

O=C/C=C/c1ccccc1 [cinnamaldehyde]
qPCR test for Las after treatment (Las [4]): qPCR positive
MIC (Lcr): 5 µg/mL (≈ 37.8 µM)
inhibition of the growth of Lcr (zone of inhibition) [1, 8]: strong inhibition
level down to which inhibitory to Lcr in the disc tests ([1]; two-fold serial dilutions in 70% ethanol on 6 mm discs): 1 mg/mL
phytotoxicity to citrus, soil drench (Swingle rootstocks; [9]): not at all phytotoxic
phytotoxicity to citrus, soil drench (Swingle rootstocks; [11]): moderately phytotoxic
inhibition of the growth of E. coli (zone of inhibition) [2]: more inhibitory than geraniol
effect on foliage of treated trees [5]: completely defoliated
PCR test for Las (Las [6]; 0.3% in 50% DMSO, foliar spray to run off): remained infected
PCR test for Las in new shoots (Las [6]; 1.5% in 50% DMSO, foliar spray to run off, first tests about 3 weeks after defoliation): completely Las negative
outcome of weekly qPCR tests for Las over nine months (Las [6]; 1.5% in 50% DMSO, foliar spray, no detectable Liberibacter infection and no citrus greening symptoms): cured
PCR test for Las in new shoots (Las [7]; 2 x 20 ml trunk injection, first tests about 3 weeks after defoliation): completely negative
weekly PCR tests for Las over 9 months (Las [7]; trunk injection, thus cured): remained completely PCR negative
phytotoxicity to citrus, foliar application [3, 10]: not at all phytotoxic
phytotoxicity to citrus, foliar application [3, 11]: moderately phytotoxic

CC(C)=CCC/C(C)=C/CO [geraniol, reference compound]
inhibition of the growth of Lcr (zone of inhibition) ([1]; 20 μl of two-fold dilutions 2 mg/ml to 0.125 mg/ml in 70% ethanol on 6 mm discs): not inhibitory
inhibition of the growth of E. coli (zone of inhibition) [2]: inhibitory
